Assay results reported in ChEMBL document CHEMBL1159010, “Constituents of Azadirachta indica: isolation and structure elucidation of a new antibacterial tetranortriterpenoid, mahmoodin, and a new protolimonoid, naheedin” (1992).

Assays:
Format in all cases: functional
Conditions in all cases: read-out: IZ
Bacillus cereus = test: Antimicrobial activity against Bacillus cereus at 10 mg
Klebsiella pneumoniae = test: Antimicrobial activity against Klebsiella pneumoniae at 10 mg
Salmonella = test: Antimicrobial activity against Salmonella schotmuelleri at 10 mg
Staphylococcus aureus = test: Antimicrobial activity against Staphylococcus aureus at 10 mg
Bacillus subtilis = test: Antimicrobial activity against Bacillus subtilis at 10 mg
Corynebacterium xerosis = test: Antimicrobial activity against Corynebacterium xerosis at 10 mg
Streptococcus pyogenes = test: Antimicrobial activity against Streptococcus pyogenes at 10 mg
Enterococcus faecalis = test: Antimicrobial activity against Streptococcus faecalis at 10 mg
Shigella sonnei = test: Antimicrobial activity against Shigella sonnei at 10 mg

**Q.** `CC(=O)O[C@@H]1C[C@H]2C(C)(C)C(=O)C=C[C@]2(C)[C@H]2CC[C@]3(C)C(=CC(=O)O[C@@]3(OCCO)c3ccoc3)[C@@]21C` was tested. Which zone of inhibition at 10000 µg/disc (Bacillus cereus) did it give?
**A.** 18 mm

**Q.** What about the zone of inhibition at 10000 µg/disc (Klebsiella pneumoniae) of the same molecule?
**A.** 15 mm

**Q.** And the zone of inhibition at 10000 µg/disc (Salmonella)?
**A.** 20 mm

**Q.** What about the zone of inhibition at 10000 µg/disc (Staphylococcus aureus) of the same molecule?
**A.** 17 mm

**Q.** What about the zone of inhibition at 10000 µg/disc (Bacillus subtilis) of the same molecule?
**A.** 20 mm

**Q.** What about the zone of inhibition at 10000 µg/disc (Corynebacterium xerosis) of the same molecule?
**A.** 17 mm

**Q.** And the zone of inhibition at 10000 µg/disc (Streptococcus pyogenes)?
**A.** 28 mm

**Q.** What about the zone of inhibition at 10000 µg/disc (Enterococcus faecalis) of the same molecule?
**A.** 22 mm

**Q.** And the zone of inhibition at 10000 µg/disc (Shigella sonnei)?
**A.** 16 mm
